From patent publication US20120220562A1, “Anti-Viral Compounds” (ABBOTT LABAORATORIES, priority 2011, published 2012) come the findings set out here.

In general, EC50 refers to the concentration at which the effect is half-maximal.

This experiment relates to HCV 1b-Con1 replicon. The experiment in a line: HCV 1b-Con1 replicon assay in the presence of 5% FBS. The format is cell-based. The conditions noted are these: Hepatitis C virus. (In general: A replicon is a self-replicating genome or part of one, used to study replication in cells.)

Regarding `COC(=O)N[C@H](C(=O)N1CCC[C@H]1c1nc2cc([C@H]3CC[C@H](c4ccc5[nH]c([C@@H]6CCCN6C(=O)[C@@H](NC(=O)OC)C(C)C)nc5c4)N3c3cc(F)c(N4CCN(c5ccc(C(F)(F)F)cc5)CC4)c(F)c3)ccc2[nH]1)C(C)C` [Example 2.17, methyl {(2S)-1-[(2S)-2-{5-[(2R,5R)-1-(3,5-difluoro-4-{4-[4-(trifluoromethyl)phenyl]piperazin-1-yl}phenyl)-5-{2-[(2S)-1-(2S)-2-[(methoxycarbonyl)amino]-3-methylbutanoylpyrrolidin-2-yl]-1H-benzimidazol-5-yl}pyrrolidin-2-yl]-1H-benzimidazol-2-yl}pyrrolidin-1-yl]-3-methyl-1-oxobutan-2-yl}carbamate], the EC50 is < 0.1 nM.
Under `COC(=O)N[C@H](C(=O)N1CCC[C@H]1c1nc2cc([C@H]3CC[C@H](c4ccc5[nH]c([C@@H]6CCCN6C(=O)[C@@H](NC(=O)OC)C(C)C)nc5c4)N3c3ccc(-c4ccccn4)cc3)ccc2[nH]1)C(C)C` [Example 3.1, methyl {(2S)-1-[(2S)-2-(5-{(2R,5R)-5-{2-[(2S)-1-{(2S)-2-[(methoxycarbonyl)amino]-3-methylbutanoyl}pyrrolidin-2-yl]-1H-benzimidazol-5-yl}-1-[4-(pyridin-2-yl)phenyl]pyrrolidin-2-yl}-1H-benzimidazol-2-yl)pyrrolidin-1-yl]-3-methyl-1-oxobutan-2-yl}carbamate] stands < 0.1 nM; under `COC(=O)N[C@H](C(=O)N1CCC[C@H]1c1nc2cc([C@H]3CC[C@H](c4ccc5[nH]c([C@@H]6CCCN6C(=O)[C@@H](NC(=O)OC)C(C)C)nc5c4)N3c3ccc(OC(F)(F)F)c(Cl)c3)ccc2[nH]1)C(C)C` [Example 3.2, methyl {(2S)-1-[(2S)-2-{5-[(2R,5R)-1-[3-chloro-4-(trifluoromethoxy)phenyl]-5-{2-[(2S)-1-{(2S)-2-[(methoxycarbonyl)amino]-3-methylbutanoyl}pyrrolidin-2-yl]-1H-benzimidazol-5-yl}pyrrolidin-2-yl]-1H-benzimidazol-2-yl}pyrrolidin-1-yl]-3-methyl-1-oxobutan-2-yl}carbamate], < 0.1 nM; under `COCCOc1ccc(N2[C@@H](c3ccc4[nH]c([C@@H]5CCCN5C(=O)[C@@H](NC(=O)OC)C(C)C)nc4c3)CC[C@@H]2c2ccc3[nH]c([C@@H]4CCCN4C(=O)[C@@H](NC(=O)OC)C(C)C)nc3c2)cc1` [Example 3.3, methyl {(2S)-1-[(2S)-2-(5-{(2R,5R)-5-{2-[(2S)-1-{(2S)-2-[(methoxycarbonyl)amino]-3-methylbutanoyl}pyrrolidin-2-yl]-1H-benzimidazol-5-yl}-1-[4-(2-methoxyethoxy)phenyl]pyrrolidin-2-yl}-1H-benzimidazol-2-yl)pyrrolidin-1-yl]-3-methyl-1-oxobutan-2-yl}carbamate], 0.1 to 1 nM.
The same measure for `COC(=O)N[C@H](C(=O)N1CCC[C@H]1c1nc2cc([C@H]3CC[C@H](c4ccc5[nH]c([C@@H]6CCCN6C(=O)[C@@H](NC(=O)OC)C(C)C)nc5c4)N3c3ccc(Cl)cc3)ccc2[nH]1)C(C)C` [Example 3.4, methyl {(2S)-1-[(2S)-2-{5-[(2R,5R)-1-(4-chlorophenyl)-5-{2-[(2S)-1-{(2S)-2-[(methoxycarbonyl)amino]-3-methylbutanoyl}pyrrolidin-2-yl]-1H-benzimidazol-5-yl}pyrrolidin-2-yl]-1H-benzimidazol-2-yl}pyrrolidin-1-yl]-3-methyl-1-oxobutan-2-yl}carbamate]: < 0.1 nM.
Consider `COC(=O)N[C@H](C(=O)N1CCC[C@H]1c1nc2cc([C@H]3CC[C@H](c4ccc5[nH]c([C@@H]6CCCN6C(=O)[C@@H](NC(=O)OC)C(C)C)nc5c4)N3c3ccc(-c4ccccc4)cc3)ccc2[nH]1)C(C)C` [Example 3.5, methyl {(2S)-1-[(2S)-2-{5-[(2R,5R)-1-(biphenyl-4-yl)-5-{2-[(2S)-1-{(2S)-2-[(methoxycarbonyl)amino]-3-methylbutanoyl}pyrrolidin-2-yl]-1H-benzimidazol-5-yl}pyrrolidin-2-yl]-1H-benzimidazol-2-yl}pyrrolidin-1-yl]-3-methyl-1-oxobutan-2-yl}carbamate], for which the 50% effective concentration (EC50) was < 0.1 nM.
The same measure for `COC(=O)N[C@H](C(=O)N1CCC[C@H]1c1nc2cc([C@H]3CC[C@H](c4ccc5[nH]c([C@@H]6CCCN6C(=O)[C@@H](NC(=O)OC)C6CCOCC6)nc5c4)N3c3ccc(C(C)(C)C)cc3)ccc2[nH]1)C1CCOCC1` [Example 3.6, dimethyl ([(2R,5R)-1-(4-tert-butylphenyl)pyrrolidine-2,5-diyl]bis{1H-benzimidazole-5,2-diyl(2S)pyrrolidine-2,1-diyl[(1S)-2-oxo-1-(tetrahydro-2H-pyran-4-yl)ethane-2,1-diyl]})biscarbamate]: < 0.1 nM; for `COC(=O)N[C@H](C(=O)N1C[C@@H](OC)C[C@H]1c1nc2cc([C@H]3CC[C@H](c4ccc5[nH]c([C@@H]6C[C@H](OC)CN6C(=O)[C@@H](NC(=O)OC)C(C)C)nc5c4)N3c3cc(F)c(N4CCCCC4)c(F)c3)ccc2[nH]1)C(C)C` [Example 3.7, methyl {(2S)-1-[(2S,4S)-2-{5-[(2R,5R)-1-[3,5-difluoro-4-(piperidin-1-yl)phenyl]-5-{2-[(2S,4S)-4-methoxy-1-{(2S)-2-[(methoxycarbonyl)amino]-3-methylbutanoyl}pyrrolidin-2-yl]-1H-benzimidazol-5-yl}pyrrolidin-2-yl]-1H-benzimidazol-2-yl}-4-methoxypyrrolidin-1-yl]-3-methyl-1-oxobutan-2-yl}carbamate]: < 0.1 nM.
Consider `COC(=O)N[C@H](C(=O)N1C[C@@H](F)C[C@H]1c1nc2cc([C@H]3CC[C@H](c4ccc5[nH]c([C@@H]6C[C@H](F)CN6C(=O)[C@@H](NC(=O)OC)C(C)C)nc5c4)N3c3cc(F)c(N4CCCCC4)c(F)c3)ccc2[nH]1)C(C)C` [Example 3.8, methyl {(2S)-1-[(2S,4S)-2-{5-[(2R,5R)-1-[3,5-difluoro-4-(piperidin-1-yl)phenyl]-5-{2-[(2S,4S)-4-fluoro-1-{(2S)-2-[(methoxycarbonyl)amino]-3-methylbutanoyl}pyrrolidin-2-yl]-1H-benzimidazol-5-yl}pyrrolidin-2-yl]-1H-benzimidazol-2-yl}-4-fluoropyrrolidin-1-yl]-3-methyl-1-oxobutan-2-yl}carbamate], for which the EC50 was < 0.1 nM.
As for `COC(=O)N[C@H](C(=O)N1C[C@@H](F)C[C@H]1c1nc2cc([C@H]3CC[C@H](c4ccc5[nH]c([C@@H]6C[C@H](F)CN6C(=O)[C@@H](NC(=O)OC)C(C)C)nc5c4)N3c3ccc(F)cc3)ccc2[nH]1)C(C)C` [Example 3.9, methyl {(2S)-1-[(2S,4S)-4-fluoro-2-{5-[(2R,5R)-5-{2-[(2S,4S)-4-fluoro-1-{(2S)-2-[(methoxycarbonyl)amino]-3-methylbutanoyl}pyrrolidin-2-yl]-1H-benzimidazol-5-yl}-1-(4-fluorophenyl)pyrrolidin-2-yl]-1H-benzimidazol-2-yl}pyrrolidin-1-yl]-3-methyl-1-oxobutan-2-yl}carbamate], the 50% effective concentration (EC50) fell in the range of 0.1 to 1 nM.
Under `COC(=O)N[C@H](C(=O)N1C[C@@H](OC)C[C@H]1c1nc2cc([C@H]3CC[C@H](c4ccc5[nH]c([C@@H]6C[C@H](OC)CN6C(=O)[C@@H](NC(=O)OC)C(C)C)nc5c4)N3c3ccc(F)cc3)ccc2[nH]1)C(C)C` [Example 3.10, methyl {(2S)-1-[(2S,4S)-2-{5-[(2R,5R)-1-(4-fluorophenyl)-5-{2-[(2S,4S)-4-methoxy-1-{(2S)-2-[(methoxycarbonyl)amino]-3-methylbutanoyl}pyrrolidin-2-yl]-1H-benzimidazol-5-yl}pyrrolidin-2-yl]-1H-benzimidazol-2-yl}-4-methoxypyrrolidin-1-yl]-3-methyl-1-oxobutan-2-yl}carbamate] stands 0.1 to 1 nM.
Under `COC(=O)N[C@H](C(=O)N1[C@H](c2nc3cc([C@H]4CC[C@H](c5ccc6[nH]c([C@@H]7CCC(C)(C)N7C(=O)[C@@H](NC(=O)OC)C(C)C)nc6c5)N4c4ccc(C(C)(C)C)cc4)ccc3[nH]2)CCC1(C)C)C(C)C` [Example 3.11, methyl {(2S)-1-[(5.5)-5-{5-[(2R,5R)-1-(4-tert-butylphenyl)-5-{2-[(2S)-1-{(2S)-2-[(methoxycarbonyl)amino]-3-methylbutanoyl}-5,5-dimethylpyrrolidin-2-yl]-1H-benzimidazol-5-yl}pyrrolidin-2-yl]-1H-benzimidazol-2-yl}-2,2-dimethylpyrrolidin-1-yl]-3-methyl-1-oxobutan-2-yl}carbamate] stands < 0.1 nM; under `COC(=O)N[C@H](C(=O)N1C[C@@H](F)C[C@H]1c1nc2cc([C@H]3CC[C@H](c4ccc5[nH]c([C@@H]6C[C@H](F)CN6C(=O)[C@@H](NC(=O)OC)C(C)C)nc5c4)N3c3ccc(C(C)(C)C)cc3)ccc2[nH]1)C(C)C` [Example 3.12, methyl {(2S)-1-[(2S,4S)-2-{5-[(2R,5R)-1-(4-tert-butylphenyl)-5-{2-[(2S,45)-4-fluoro-1-{(2S)-2-[(methoxycarbonyl)amino]-3-methylbutanoyl}pyrrolidin-2-yl]-1H-benzimidazol-5-yl}pyrrolidin-2-yl]-1H-benzimidazol-2-yl}-4-fluoropyrrolidin-1-yl]-3-methyl-1-oxobutan-2-yl}carbamate], < 0.1 nM; under `COC(=O)N[C@H](C(=O)N1CCC[C@H]1c1nc2cc([C@@H]3CC[C@@H](c4ccc5[nH]c([C@@H]6CCCN6C(=O)[C@@H](NC(=O)OC)[C@@H](C)OC)nc5c4)N3c3ccc(C4CC4)cc3F)ccc2[nH]1)[C@@H](C)OC` [Example 3.13, methyl {(2S,3R)-1-[(2S)-2-{5-[(2S,5S)-1-(4-cyclopropyl-2-fluorophenyl)-5-(2-{(2S)-1-[N-(methoxycarbonyl)-O-methyl-L-threonyl]pyrrolidin-2-yl}-1H-benzimidazol-5-yl)pyrrolidin-2-yl]-1H-benzimidazol-2-yl}pyrrolidin-1-yl]-3-methoxy-1-oxobutan-2-yl}carbamate], < 0.1 nM.
Turning to `CC(C)(C)OC(=O)NCC(=O)N1CCC[C@H]1c1nc2cc([C@@H]3CC[C@@H](c4ccc5[nH]c([C@@H]6CCCN6C(=O)CNC(=O)OC(C)(C)C)nc5c4)N3c3ccc(N4CCCCC4)c(F)c3)ccc2[nH]1` [Example 3.14, tert-butyl {2-[(2S)-2-(5-{(2S,5S)-5-{2-[(2S)-1-{[(tert-butoxycarbonyl)amino]acetyl}pyrrolidin-2-yl]-1H-benzimidazol-5-yl}-[3-fluoro-4-(piperidin-1-yl)phenyl]pyrrolidin-2-yl}-1H-benzimidazol-2-yl)pyrrolidin-1-yl]-2-oxoethyl}carbamate], the concentration giving a half-maximal response (EC50) was > 10 nM.
